Laboratory results from patent US9445999B2, “Process for preparing carrier particles for dry powders for inhalation” (CHIESI FARMACEUTICI S.p.A., priority 2010, dated 2016).

Tests used:
[1] = Particle size distribution (PSD) by laser diffraction with a Malvern apparatus; type: physicochemical; conditions: lactose 90-150 microns + 0.5% w/w MgSt, CYCLOMIX at given speed and time; mean of three determinations
Text: In general terms, the particle size of the particles is quantified by measuring a characteristic equivalent sphere diameter, known as volume diameter, by laser diffraction.
In the present application, the particle size interval is expressed in terms of […]. Otherwise, the particle size distribution is expressed in terms of: i) the volume median diameter (VMD) which corresponds to the diameter of 50 percent by weight or volume respectively, of the particles, e.g. d(v0.5); and ii) the volume diameter (VD) in microns of 10% and 90% of the particles, respectively, e.g. d(v0.1) and d(v0.9).
iv) the particle size distribution (PSD) by laser diffraction with a Malvern apparatus; the water contact angle by the sessile drop method wherein the powder is in the form of a disc obtained by compaction (compressed powder disc method) according to the procedure reported above in the description;
The results are expresses as mean of three determinations. In Table 2, the water contact angle values and the corresponding extent of surface coating calculated from the Cassie and Baxter equation are also reported. Said equation was applied to the experimental values of the penultimate column of Table 2 using the reference values for magnesium state alone and alpha-lactose monohydrate alone. The variability in terms of S.D. of the experimental values is always less than ±10%, typically of ±5%.

[2] = Water contact angle by sessile drop (compressed powder disc method); extent of surface coating from the Cassie and Baxter equation; type: physicochemical; conditions: 0.5% w/w MgSt carriers
Text: The extent to which magnesium stearate coats the surface of the lactose particles may be determined by first measuring the water contact angle, and then applying the equation known in the literature as Cassie and Baxter, cited at page 338 of Colombo I et al., Il Farmaco, 1984, 39(10), pp. 328-341, which is incorporated herein by reference in its entirety, and reported below. cos θmixture=fMgSt cos θMgst+flactore cos θlactose where
fMgst and flactore are the surface area fractions of magnesium stearate and of lactose;
θMgSt is the water contact angle of magnesium stearate;
θlactose is the water contact angle of lactose; and
θmixture are the experimental contact angle values. […]
If a fully automated procedure is not available, the base (b) and the height (h) of the drop are measured on the display using a mobile reading scale, then the water contact angles (WCA) are calculated by applying the following formula: WCA=[arctg2h/b]×2×180/[…]
Typically the values are calculated as a mean of three different measurements taken at room temperature. […]
The results are expresses as mean of three determinations. In Table 2, the water contact angle values and the corresponding extent of surface coating calculated from the Cassie and Baxter equation are also reported. […]

Structure (SMILES): O.OC[C@H]1O[C@@H](O[C@H]2[C@H](O)[C@@H](O)[C@@H](O)O[C@@H]2CO)[C@H](O)[C@@H](O)[C@H]1O [α-lactose monohydrate, alpha-lactose monohydrate]
- PSD d(v0.1) [1]: 96.4
- PSD d(v0.5) [1]: 132.2
- PSD d(v0.9) [1]: 182.3
- Water Contact Angle ([2]; compressed powder disc, sessile drop): 8.35 E
- Extent of Surface Coating ([2]; calculated from the Cassie and Baxter equation): 0%
